Test: xn = mol fraction of the nth substance listed
Details: 100 kPa, Liquid, Vibrating tube method, x2 = 0.3333

NC(N)=O [urea] + C[N+](C)(C)CCO.[Cl-]
Details	mass density [kg/m3]
293.15 K	1199.42
298.15 K	1196.68
303.15 K	1193.96
308.15 K	1191.19
313.15 K	1188.52
318.15 K	1185.87
323.15 K	1183.2
328.15 K	1180.53
333.15 K	1177.87
338.15 K	1175.22

Reference: the NIST ThermoML archive (doi:10.1021/acs.jced.9b00145)
